Laboratory results reported in patent publication US20240423207A1, “PICOLINAMIDE COMPOUNDS WITH FUNGICIDAL ACTIVITY” (CORTEVA AGRISCIENCE LLC, priority 2014, published 2024).

Experiments:
Type in all cases: in vivo
[1] = system: Glomerella lagenarium; Anamorph: Colletotrichum lagenarium; assay: Cucumber Anthracnose (COLLLA) fungicidal activity on cucumber seedlings; conditions: Colletotrichum orbiculare, 24 h, 1 Day Protectant, read-out: COLLLA 1 DP disease control
Experimental: Technical grades of materials were dissolved in acetone, which were then mixed with nine volumes of water (H2O) containing 110 ppm Triton X-100. The fungicide solutions were applied onto wheat seedlings using an automated booth sprayer to run-off. All sprayed plants were allowed to air dry prior to further handling. All fungicides were evaluated using the aforementioned method for their activity vs. all target diseases, unless stated otherwise. Wheat leaf blotch and brown rust activity were also evaluated using track spray applications, in which case the fungicides were formulated as EC formulations, containing 0.1% Trycol 5941 in the spray solutions. Wheat plants (variety Yuma) were grown from seed in a greenhouse in 50% mineral soil/50% soil-less Metro mix until the first leaf was fully emerged, with 7-10 seedlings per pot. These plants were inoculated with an aqueous spore suspension of Septoria tritici either prior to or after fungicide treatments. After inoculation the plants were kept in 100% relative humidity (one day in a dark dew chamber followed by two to three days in a lighted dew chamber at 20° C.) to permit spores to germinate and infect the leaf. The plants were then transferred to a greenhouse set at 20° C. for disease to develop. When disease symptoms were fully expressed on the 1st leaves of untreated plants, infection levels were assessed on a scale of 0 to 100 percent disease severity. Percent disease control was calculated using the ratio of disease severity on treated plants relative to untreated plants. Example J: Evaluation of Fungicidal Activity: Cucumber Anthracnose (Glomerella lagenarium; Anamorph: Colletotrichum lagenarium; Bayer code COLLLA) Cucumber seedlings (variety Bush Pickle) were propagated in soil-less Metro mix, with each pot having one plant, and used in the test when 12 to 14 days old. Test plants were inoculated with an aqueous spore suspension of Colletotrichum lagenarium 24 hr after fungicide treatments. After inoculation the plants were kept in a dew room at 22° C. with 100% relative humidity for 48 hr to permit spores to germinate and infect the leaf. The plants were then transferred to a growth room set at 22° C. for disease to develop. Fungicide formulation, application and disease assessment on the sprayed leaves followed the procedures as described in the Example A.

[2] = system: Magnaporthe grisea; Anamorph: Pyricularia oryzae; assay: whole plant or invertebrate; conditions: 24 h, read-out: PYRIOR 1 DP disease control
Rhyncosporium secalis = assay: Barley Scald (RHYNSE) fungicidal activity on barley seedlings; conditions: Hordeum vulgare, 24 h, 1 Day Protectant, read-out: RHYNSE 1 DP disease control
Experimental: Technical grades of materials were dissolved in acetone, which were then mixed with nine volumes of water (H2O) containing 110 ppm Triton X-100. The fungicide solutions were applied onto wheat seedlings using an automated booth sprayer to run-off. All sprayed plants were allowed to air dry prior to further handling. All fungicides were evaluated using the aforementioned method for their activity vs. all target diseases, unless stated otherwise. Wheat leaf blotch and brown rust activity were also evaluated using track spray applications, in which case the fungicides were formulated as EC formulations, containing 0.1% Trycol 5941 in the spray solutions. Wheat plants (variety Yuma) were grown from seed in a greenhouse in 50% mineral soil/50% soil-less Metro mix until the first leaf was fully emerged, with 7-10 seedlings per pot. These plants were inoculated with an aqueous spore suspension of Septoria tritici either prior to or after fungicide treatments. After inoculation the plants were kept in 100% relative humidity (one day in a dark dew chamber followed by two to three days in a lighted dew chamber at 20° C.) to permit spores to germinate and infect the leaf. The plants were then transferred to a greenhouse set at 20° C. for disease to develop. When disease symptoms were fully expressed on the 1st leaves of untreated plants, infection levels were assessed on a scale of 0 to 100 percent disease severity. Percent disease control was calculated using the ratio of disease severity on treated plants relative to untreated plants. Example G: Evaluation of Fungicidal Activity: Barley Scald (Rhyncosporium secalis; Bayer code […]) Barley seedlings (variety Harrington) were propagated in soil-less Metro mix, with each pot having 8 to 12 plants, and used in the test when the first leaf was fully emerged. Test plants were inoculated by an aqueous spore suspension of Rhyncosporium secalis 24 h after fungicide treatments. After inoculation the plants were kept in a dew room at 20° C. with 100% relative humidity for 48 h. The plants were then transferred to a greenhouse set at 20° C. for disease to develop. Fungicide formulation, application and disease assessment on the sprayed leaves followed the procedures as described in the Example A.

Structure (SMILES): COc1ccnc(C(=O)N[C@@H](C)C(=O)O[C@@H](C)C(c2ccccc2)c2ccccc2)c1OC(=O)C(C)C [Cmpd 140]
- pest or weed control at 100 ppm [1]: > 80%
- pest or weed control at 100 ppm [2]: > 80%

Structure (SMILES): COc1ccnc(C(=O)N[C@@H](C)C(=O)O[C@@H](C)C(c2ccc(F)cc2)c2ccc(F)cc2)c1OC(C)=O [Cmpd 145]
- pest or weed control at 100 ppm [1]: > 80%
- pest or weed control at 100 ppm (Rhyncosporium secalis): > 80%
- pest or weed control at 100 ppm [2]: > 80%

Structure (SMILES): COc1ccnc(C(=O)N[C@@H](C)C(=O)O[C@@H](C)C(c2ccccc2)c2ccccc2)c1OCOC(=O)C(C)C [Cmpd 142, (S)-(S)-1,1-diphenylpropan-2-yl 2-(3-((isobutyryloxy)methoxy)-4-methoxypicolinamido)propanoate]
- pest or weed control at 100 ppm [1]: > 80%
- pest or weed control at 100 ppm (Rhyncosporium secalis): > 80%
- pest or weed control at 100 ppm [2]: > 80%

Structure (SMILES): COc1ccnc(C(=O)N[C@@H](C)C(=O)O[C@@H](C)C(c2ccccc2)c2ccccc2)c1OCOC(C)=O [Cmpd 141, (S)-(S)-1,1-diphenylpropan-2-yl 2-(3-(acetoxymethoxy)-4-methoxypicolinamido)propanoate]
- pest or weed control at 100 ppm [1]: > 80%
- pest or weed control at 100 ppm (Rhyncosporium secalis): > 80%
- pest or weed control at 100 ppm [2]: > 80%

Structure (SMILES): COc1ccnc(C(=O)N[C@@H](C)C(=O)O[C@@H](C)C(c2ccc(F)cc2)c2ccc(F)cc2)c1OCOC(C)=O [Cmpd 146]
- pest or weed control at 100 ppm [1]: > 80%
- pest or weed control at 100 ppm (Rhyncosporium secalis): > 80%
- pest or weed control at 100 ppm [2]: > 80%

Structure (SMILES): COc1ccnc(C(=O)N[C@@H](C)C(=O)O[C@@H](C)C(c2ccc(F)cc2F)c2ccc(F)cc2F)c1OC(C)=O [Cmpd 150]
- pest or weed control at 100 ppm [1]: > 80%
- pest or weed control at 100 ppm (Rhyncosporium secalis): > 80%
- pest or weed control at 100 ppm [2]: > 80%

Structure (SMILES): COc1ccnc(C(=O)N[C@@H](C)C(=O)O[C@@H](C)C(c2ccc(Cl)cc2)c2ccc(Cl)cc2)c1OCOC(C)=O [Cmpd 176]
- pest or weed control at 100 ppm [1]: > 80%
- pest or weed control at 100 ppm (Rhyncosporium secalis): > 80%
- pest or weed control at 100 ppm [2]: > 80%

Structure (SMILES): COc1ccnc(C(=O)N[C@@H](C)C(=O)O[C@@H](C)C(c2ccc(F)cc2F)c2ccc(F)cc2F)c1OCOC(C)=O [Cmpd 148]
- pest or weed control at 100 ppm [1]: > 80%
- pest or weed control at 100 ppm (Rhyncosporium secalis): > 80%
- pest or weed control at 100 ppm [2]: > 80%

Structure (SMILES): COc1ccnc(C(=O)N[C@@H](C)C(=O)O[C@@H](C)C(c2ccccc2)c2ccccc2)c1OC(C)=O [Cmpd 139, (S)-(S)-1,1-diphenylpropan-2-yl 2-(3-acetoxy-4-methoxypicolinamido)propanoate]
- pest or weed control at 100 ppm [1]: > 80%
- pest or weed control at 100 ppm (Rhyncosporium secalis): > 80%
- pest or weed control at 100 ppm [2]: > 80%

Structure (SMILES): COc1ccnc(C(=O)N[C@@H](C)C(=O)O[C@@H](C)C(c2ccc(Cl)cc2)c2ccc(Cl)cc2)c1OC(C)=O [Cmpd 174]
- pest or weed control at 100 ppm [1]: > 80%
- pest or weed control at 100 ppm (Rhyncosporium secalis): > 80%
- pest or weed control at 100 ppm [2]: > 80%
